This experiment concerns CXCL10 production. Put plainly: CXCL10 production inhibition test. Type of experiment: cell-based. Particulars: Endothelial cell; test compound 0.1 μmol/L; human umbilical vein-derived endothelial cells; TNFα 10 ng/mL; supernatant 72 hours after stimulation; ELISA; read-out: Rate of inhibition of CXCL10 production. The protocol: (CXCL10 Production Inhibition Test)
0.5×10^4 or 1×10^4 human umbilical vein-derived endothelial cells were suspended in 100 μL of an EGM-2 BulletKit medium (without GA) or a Medium-200 medium supplemented with an EGM-2 SingleQuots kit (without GA), inoculated to a 96-well plate and cultured overnight. 100 μL of a solution of each test compound diluted with the same medium as that used in the inoculation was added to the cultured cells (final concentration of the test compound: 0.1 μmol/L). 1 hour thereafter, TNFα was added thereto at a final concentration of 10 ng/mL. 72 hours after the stimulation, the supernatant was recovered, and the amount of CXCL10 produced in the culture supernatant was determined using an ELISA kit (Peprotech, 900-109).
The rate of inhibition was calculated according to the following expression: Rate of inhibition (%)=100−(Amount of CXCL10 produced in the presence of the test compound/Amount of CXCL10 produced in the absence of the test compound)×100
(In general: An ELISA detects its analyte on a solid surface through an enzyme-linked reagent.)

Molecules are shown by their SMILES.

The source of these data is US10696637B2, “Nitrogen-containing heterocyclic compound” (FUJIFILM Corporation, priority 2015, dated 2020).

As a reminder, the inhibition is the percentage by which the read-out fell short of the control. Take `CCn1c(=O)cc(N2CCOCC2)c2cc(-n3c(-c4ccccc4)cn(CCN4CCCCC4)c3=O)ccc21` [Example 259, 1-ethyl-4-(morpholin-4-yl)-6-(2-oxo-5-phenyl-3-(2-(piperidin-1-yl)ethyl)-2,3-dihydro-1H-imidazol-1-yl)quinolin-2(1H)-one]: the inhibition at 0.1 µM was ≥ 50%.
For the molecule `CCCCn1cc(-c2ccccc2)n(-c2ccc3c(c2)c(N2CCOCC2)cc(=O)n3CC)c1=O` [Example 264, 6-(3-butyl-2-oxo-5-pheynyl-2,3-dihydro-1H-imidazazol-1-yl)-1-ethyl-4-(morpholin-4-yl)quinolin-2(1H)-one], the inhibition at 0.1 µM is ≥ 50%.
With `CCn1c(=O)cc(C2CC2)c2cc(-n3c(-c4ccc(Cl)cc4)c[nH]c3=O)ccc21` [Example 271, 6-(5-(4-chlorophenyl)-2-oxo-2,3-dihydro-1H-imidazol-1-yl)-cyclopropyl-1-ethylquinolin-2(1H)-one], the inhibition at 0.1 µM is ≥ 50%.
On to `CCn1c(=O)cc(C2CC2)c2cc(-n3c(-c4ccc(C(F)(F)F)cc4)c[nH]c3=O)ccc21` [Example 268, 4-cyclopropyl-1-ethyl-6-(2-oxo-5-(4-(trifluoromethyl)phenyl)-2,3-dihydro-1H-imidazol-1-yl)quinolin-2(1H)-one], for which the inhibition at 0.1 µM is ≥ 50%.
The same measure for `CCn1c(=O)cc(N2CCOCC2)c2cc(-n3c(-c4ccccc4)c[nH]c3=O)ccc21` [Example 3, 1-ethyl-4-(morpholin-4-yl)-6-(2-oxo-5-phenyl-2,3-dihydro-1H-imidazol-1-yl)quinolin-2(1H)-one]: ≥ 50%; for `CCn1c(=O)cc(N2CCOCC2)c2cc(-n3c(-c4ccc(C(F)(F)F)cc4)cn(C)c3=O)ccc21` [Example 270, 1-ethyl-6-(3-methyl-2-oxo-5-(4-(trifluoromethyl)phenyl)-2,3-dihydro-1H-imidazol-1-yl)-4-(morpholin-4-yl)quinolin-2(1H)-one]: ≥ 50%; for `CCn1c(=O)cc(C)c2cc(-c3cccnc3-c3ccccc3)ccc21` [Example 291, 1-ethyl-4-methyl-6-(2-phenylpyridin-3-yl)quinolin-2(1H)-one]: ≥ 50%.
As for `CCn1c(=O)cc(N2CCOCC2)c2cc(-n3c(-c4ccc(Cl)cc4)c[nH]c3=O)ccc21` [Example 245, 6-(5-(4-chlorophenyl)-2-oxo-2,3-dihydro-1H-imidazol-1-yl)-1-ethyl-4-(morpholin-4-yl)quinolin-2(1H)-one], the inhibition at 0.1 µM was ≥ 50%.
As for `CCC1C(=O)N(c2ccccc2)N(c2ccc3c(c2)c(C2CC2)cc(=O)n3CC)C1=O` (stereo not shown) [Example 281, 1-(4-cyclopropyl-1-ethyl-2-oxo-1,2-dihydroquinolin-6-yl)-4-ethyl-2-phenylmazolidine-3,5-dione], the figure is ≥ 50%; as for `CCn1c(=O)cc(N2CCOCC2)c2cc(-n3c(-c4ccc(C(F)(F)F)cc4)c[nH]c3=O)ccc21` [Example 272, 1-ethyl-6-(2-oxo-5-(4-(trifluoromethyl)phenyl)-2,3-dihydro-1H-imidazol-1-yl)-4-(morpholin-4-yl)quinolin-2(1H)-one], ≥ 50%.
As for `CCn1c(=O)cc(C2CCN(C(C)=O)CC2)c2cc(C(=O)N(C)c3ccc(C)cc3)ccc21` [Example 290, 4-(1-acetylpiperidin-4-yl)-1-ethyl-N-methyl-N-(4-methylphenyl)-2-oxo-1,2-dihydroquinoline-6-carboxamide], the figure is ≥ 50%.
As for `CCCn1cc(-c2ccccc2)n(-c2ccc3c(c2)c(N2CCOCC2)cc(=O)n3CC)c1=O` [Example 265, 1-ethyl-4-(morpholin-4-yl)-6-(2-oxo-5-phenyl-3-propyl-2,3-dihydro-1H-imidazol-1-yl)quinolin-2(1H)-one], the figure is ≥ 50%; as for `CCn1c(=O)cc(N2CCOCC2)c2cc(-c3ccccc3-c3ccccc3)ccc21` [Example 258, 6-(biphenyl-2-yl)-1-ethyl-4-(morpholin-4-yl)quinolin-2(1H)-one], ≥ 50%.
